Measurements from patent US5061495A, “Antibiotic derived from B. subtilis” (Agricultural Genetics Company Limited, priority 1988, dated 1991).
Where two headings read alike, the source gives them in different places.

Tests used:
[1] = tested on: wheat powdery mildew (Erysiphe graminis); test: Control of wheat powdery mildew by formulated culture broths; type: in vivo; conditions: 14 days
Method: B.subtilis NCIB 12376 was grown in a yeast peptone-glucose broth at 30° C. in an orbital shaker for 72 hours. The formulants listed in Table 9 were added to samples of culture broths at the concentrations given in Table 9 and stirred until dispersed or dissolved. The formulated broths were tested for control of wheat powdery mildew (Erysiphe graminis) by spraying to run-off wheat plants (cv. Aquila) at the two leaf stage (Zadocks GS 12) prior to inoculation with an aqueous suspension of E. graminis conidia. For each formulation 20 replicate pots of plants were sprayed. Ten pots from each treatment were then thoroughly drenched with a mist bench for 4 minutes, one hour after spraying. All pots were incubated in a glasshouse for 14 days before assessment of disease levels (Table 9).

[2] = cited from earlier work
[3] = cited from earlier work; remark: listed apart in the source

CC(C)(C)C(=O)C(Oc1ccc(Cl)cc1)n1cncn1 (centres unmarked) [Triadimefon]
Disease Level (% leaf area infected) ([1]; drenched 4 minutes, one hour after spraying, no treatment 5.6): 0.1%
Disease Level (% leaf area infected) ([1]; undrenched, no treatment 2.0): 0.2%

Bacillomycin L
Partition into butanol ([2]; neutral pH): does not partition into butanol
Thermostability ([3]; pH 3, 14 and 23): thermostable
Thermostability ([3]; pH 10, 14 and 23): thermostable

Chaetomacin
Solubility in acetone ([2]; literature): soluble

Fungistatin
Behaviour on contact with water ([2]; water): forms an inactive gel when contacted with water

Iturin A
Thermostability ([3]; pH 3, 14 and 23): thermostable
Thermostability ([3]; pH 10, 14 and 23): thermostable

Mycobacillin
Solubility in acetone ([2]; literature): soluble
Solubility in water ([2]; pH values of 7 and below, refs. 20 and 22): insoluble

Mycosubtilin
Solubility in butanol ([2]; literature): insoluble
Solubility in ethanol ([2]; literature): insoluble
Solubility in methanol ([2]; methanol, literature): insoluble

Rhizoctonia factor
Solubility in butanol ([2]; literature): insoluble
Solubility in ethanol ([2]; literature): insoluble
Thermostability ([3]; pH 2 only, refs. 5 and 9): thermostable only at pH 2
